According to patent publication US6107273A, “Tumor necrosis factor inhibitors” (Thomas Jefferson University, priority 1995, dated 2000):
Values joined by “and” are separate entries in the source; they are usually repeats but may differ in a detail not shown here. Equal values may be shown once. Square brackets hold non-standard residues; d marks the D form. Ends that are not written are not given here. Pen = CC(C)(S)[C@H](N)C(=O)O; Aib = CC(C)(N)C(=O)O

Test system: WEHI 164 cells
Experiment: In vitro cytotoxicity assay: protection of WEHI 164 cells from TNF-α cytotoxicity (AlamarBlue)
Type: cell-based, mouse
Experimental: In vitro cytotoxicity assay Cell line
The murine fibrosarcoma cell line L929 is widely used for testing TNF-α cytotoxicity in vitro. In addition, other cell lines are available that are more sensitive, such as the WEHI 164, a mouse myosarcoma cell line. Both cell lines were initially screened for use in the following experiments and WEHI 164 cells were chosen for their higher sensitivity.
Cells are maintained in serum free medium Ultraculture (Biowhittaker) with the addition of 2 mM Glutamine. The assay is carried out in the same serum free medium.
In the cytotoxicity assay, a susceptible cell line (WEHI 164) is incubated in medium containing serial dilutions of TNF-α for a set time and the consequent cytotoxic activity, manifested as inhibition of cell growth and/or cell death, is evaluated by spectrophotometer measurements of vital dye uptake.
Peptide stock solutions are made in HBSS at the concentration of 1 mg/ml, sterilized by passage through a 0.20 μm×13 mm cellulose acetate filters (Corning). The solutions were used for no longer than 10 days. All the other dilutions needed for the test were prepared just before the assay in sterile manner using the medium Ultraculture.
WEHI 164 cells are taken from logarithmic growth and seeded in 96 well microtiter plates at the density of 2500 cells/well. The assay is performed 48 hours later, at a cell density of approximately 3000 cells/well. Cells are pre-incubated with serial dilutions of peptides for 30 minutes, then TNF-α is added to the wells and incubated for 16 hours at 37° C. Samples are repeated in triplicate.
Control wells for non treated cells contain medium only. A concentration curve of TNF-α is performed for every assay at concentrations ranging between 200 and 1 ng/ml. A control for full protection from TNF-α cytotoxicity is carried out by pre-incubating TNF-α with A2 antibody (Centocor, Malvern Pa.) for 30 minutes then adding it to the cells.
After 16 hour incubation, the vital dye AlamarBlue (Alamar Biosciences) is added in the amount equal to 10% final volume. The plates are returned to the incubator for 6-10 hours.
Absorbance is evaluated at 570 nm, subtracting the background absorbance measured at 595 nm in a BioRad microtiter plate reader.
Values are expressed as a percentage of cell survival, where the control samples (containing medium only) are referred to as 100%.

[1] = 25 μg/ml peptide, TNF 25 ng/ml, 16 h
[2] = 50 μg/ml peptide, TNF 25 ng/ml, 16 h
[3] = 100 μg/ml peptide, TNF 25 ng/ml, 16 h
[4] = 2.5 μg/ml peptide, TNF 5 ng/ml, 16 h
[5] = 25 μg/ml peptide, TNF 5 ng/ml, 16 h
[6] = 50 μg/ml peptide, TNF 25 pg/ml, 16 h
[7] = 100 μg/ml peptide, TNF 25 pg/ml, 16 h

Substance | % cell survival [2] [%] | % cell survival [6] [%] | % cell survival [7] [%] | also measured
CARDNQAC (cysteine pairing not given here) [Peptide 509] | – | – | – | % cell survival (2.5 μg/ml peptide, TNF 25 ng/ml, 16 h): 21 ± 5%; % cell survival [1]: 28.4%
CEGAEC (cysteine pairing not given here) [Peptide 561] | 92 ± 20 | – | – | % cell survival [3]: 90 ± 10%
CIAVSYQTKC (cysteine pairing not given here) [Peptide 558] | 24 ± 8 | – | – | % cell survival [3]: 26 ± 7%
CPETPEGAEAKPC (cysteine pairing not given here) [Peptide 506] | – | – | – | % cell survival [4]: 68%; % cell survival [5]: 88.1%
CPQAEGQLC (cysteine pairing not given here) [Peptide 510] | – | 59.3 ± 1 | 60.4 ± 3 | –
CPRETPEGAEAKPC (cysteine pairing not given here) [Peptide 505] | – | – | – | % cell survival (100 μg/ml peptide, 30 min pre-incubation, then TNF-α 16 h, TNF concentration not printed (table 1)): 62.7 ± 4% and 32.5 ± 3%
CRIAVSYQTKVC (cysteine pairing not given here) [Peptide 557] | 70 ± 3 | – | – | % cell survival [3]: 65 ± 4%
CRRANA[dC] (cysteine pairing not given here) [Peptide 512] | – | 70.8 ± 6 | 65.6 ± 8 | –
CSYQTKC (cysteine pairing not given here) [Peptide 522] | – | – | – | % cell survival [4]: 81%; % cell survival [5]: 111%
CSYQTKVC (cysteine pairing not given here) [Peptide 521] | – | 56.51 ± 3 | 65.26 ± 4 | –
Pen-Thr-Pro-Glu-Gly-Ala-Glu-Ala-Pen ([Pen]TPEGAEA[Pen]; cysteine pairing not given here) [Peptide 562] | – | 25.2 ± 7 | 33.1 ± 7 | –
[Pen]E[Aib]E[Pen] (cysteine pairing not given here) [Peptide 556] | 71 ± 14 | – | – | % cell survival [1]: 69 ± 18%
